These results are taken from PMC10861560, “Exploiting epigenetic targets to overcome taxane resistance in prostate cancer” (Cell Death & Disease, 2024).

Molecules are shown by their SMILES.

This series has as its target T1, ABCB1 (MDR1) (Homo sapiens, UniProt P08183).
T1 construct: endogenous full-length protein in intact Du145-DtxR cells, detected by western blot after heat shock
In words: cellular thermal shift assay (CETSA), western blot. Format: cell-based. To be noted: 5 µM, intact Du145-DtxR cells, 1 h at 37 °C, heat shock 44-52 °C; positive control.

T1 sequence (P08183 whole entry): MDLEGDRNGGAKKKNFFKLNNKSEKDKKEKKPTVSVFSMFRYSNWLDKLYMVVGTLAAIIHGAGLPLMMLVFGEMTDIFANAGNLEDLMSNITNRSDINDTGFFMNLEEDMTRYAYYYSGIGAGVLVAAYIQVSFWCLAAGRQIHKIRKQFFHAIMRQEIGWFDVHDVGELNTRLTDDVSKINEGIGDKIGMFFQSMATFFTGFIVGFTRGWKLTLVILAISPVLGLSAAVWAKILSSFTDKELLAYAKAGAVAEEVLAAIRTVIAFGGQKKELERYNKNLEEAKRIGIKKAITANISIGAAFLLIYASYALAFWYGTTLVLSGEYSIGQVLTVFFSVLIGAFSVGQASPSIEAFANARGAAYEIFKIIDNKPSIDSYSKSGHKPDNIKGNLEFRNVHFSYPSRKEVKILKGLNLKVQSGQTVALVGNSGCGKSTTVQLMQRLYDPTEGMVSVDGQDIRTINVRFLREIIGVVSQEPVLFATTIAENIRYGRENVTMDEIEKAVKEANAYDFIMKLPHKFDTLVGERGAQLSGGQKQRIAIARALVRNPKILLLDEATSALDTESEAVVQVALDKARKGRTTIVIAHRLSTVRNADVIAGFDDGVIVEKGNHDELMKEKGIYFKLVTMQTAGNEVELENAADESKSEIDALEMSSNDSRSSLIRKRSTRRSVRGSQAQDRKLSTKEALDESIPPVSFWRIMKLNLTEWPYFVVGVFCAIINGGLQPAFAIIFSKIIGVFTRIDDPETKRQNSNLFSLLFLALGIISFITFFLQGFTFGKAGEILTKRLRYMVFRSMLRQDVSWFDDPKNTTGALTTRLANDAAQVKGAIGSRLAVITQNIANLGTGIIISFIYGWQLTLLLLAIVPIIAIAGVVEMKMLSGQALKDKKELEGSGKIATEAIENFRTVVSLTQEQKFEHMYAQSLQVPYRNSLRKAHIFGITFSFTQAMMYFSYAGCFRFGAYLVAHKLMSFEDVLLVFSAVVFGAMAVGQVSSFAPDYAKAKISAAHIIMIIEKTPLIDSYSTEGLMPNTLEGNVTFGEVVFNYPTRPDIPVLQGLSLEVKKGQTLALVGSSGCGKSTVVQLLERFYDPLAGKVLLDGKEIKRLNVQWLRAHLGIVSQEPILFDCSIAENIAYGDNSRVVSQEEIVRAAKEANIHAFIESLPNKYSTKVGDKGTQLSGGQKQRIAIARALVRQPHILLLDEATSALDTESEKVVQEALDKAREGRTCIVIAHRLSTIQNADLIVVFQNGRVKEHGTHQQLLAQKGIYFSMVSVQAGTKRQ

Consider `O[C@@H](COc1cccc2ncccc12)CN1CCN([C@@H]2c3ccccc3[C@@H]3[C@H](c4ccccc42)C3(F)F)CC1` [Zosuquidar], for which the “cellular thermal shift assay (CETSA), western blot” value is “it showed an ABCB1-binding compared to DMSO (Fig. 3H)”.
